Measurements taken from article PMC9250534, “Synthesis and direct assay of large macrocycle diversities by combinatorial late-stage modification at picomole scale” (Nature Communications, 2022).
“And” between values parts separate entries of the source, which are not always exact repeats. Equal values may be shown once. Read-outs that look alike come from different tables or passages of the source. Values belong to the compound of their own block, whether it stands above or below them.

Legend:
[1] = molecular target: T1, thrombin (Homo sapiens, UniProt P00734); test: Determination of Kis of purified thrombin inhibitors (IC50, Cheng-Prusoff); format: biochemical; conditions: for % thrombin activity: replicates 1-3; for IC50 / Ki: thrombin
T1 construct: consists of two polypeptide chains of 36 (light chain) and 259 amino acid
Description: Purified thrombin inhibitors (10 mM in DMSO) were diluted to 80 μM in 125 μL of Tris buffer (100 mM Tris-Cl, 150 mM NaCl, 10 mM MgCl2, 1 mM CaCl2) containing 0.1% w/v BSA, 0.01% v/v Triton-X100 and […]. The macrocycles were diluted two-fold in Tris buffer containing 0.1% w/v BSA, 0.01% v/v Triton-X100 and 1% DMSO in buffer. The thrombin activity was measured in 96-well plates (Greiner, 655101) and the residual activity calculated as described above in the assay used to measure activities of HPLC-separated fractions of screening hits.
Supplementary Figure 7. Thrombin inhibitors M1 to M5. a, Chemical structures and analytical HPLC chromatograms obtained using a 0-100% MeCN/H2O gradient over 15 minutes. b, For all macrocycles, an 18 -point, two-fold serial dilution was performed in 50 µL volumes. Thrombin was added (50 µL, 2 nM final conc.), followed 10 minutes later by fluorogenic substrate Z -Gly-Gly-Arg-AMC (50 µL, 50 µM final conc.). The increase in fluorescence was measured over 30 minutes.
Residual thrombin activity was determined by dividing the slope of fluorescenc e intensity over time for each well by the slope of control wells without macrocycle. Mean values and SDs are indicated for three independent thrombin inhibition measurements.
(1 picture or pasted object on this page, not shown here)

[2] = molecular target: MDM2 (Homo sapiens, UniProt Q00987); test: MDM2 binding screen of Libraries 3 and 4: displacement of fluorescent probe F-M8 at 750 nM macrocycle; conditions: Panel b, Library 3: 63 scaffolds combinatorially acylated with 15 carboxylic acids at 30 picomole scale; displacement of fluorescent peptide probe; macrocycle 750 nM
MDM2, sequence (Q00987 whole entry): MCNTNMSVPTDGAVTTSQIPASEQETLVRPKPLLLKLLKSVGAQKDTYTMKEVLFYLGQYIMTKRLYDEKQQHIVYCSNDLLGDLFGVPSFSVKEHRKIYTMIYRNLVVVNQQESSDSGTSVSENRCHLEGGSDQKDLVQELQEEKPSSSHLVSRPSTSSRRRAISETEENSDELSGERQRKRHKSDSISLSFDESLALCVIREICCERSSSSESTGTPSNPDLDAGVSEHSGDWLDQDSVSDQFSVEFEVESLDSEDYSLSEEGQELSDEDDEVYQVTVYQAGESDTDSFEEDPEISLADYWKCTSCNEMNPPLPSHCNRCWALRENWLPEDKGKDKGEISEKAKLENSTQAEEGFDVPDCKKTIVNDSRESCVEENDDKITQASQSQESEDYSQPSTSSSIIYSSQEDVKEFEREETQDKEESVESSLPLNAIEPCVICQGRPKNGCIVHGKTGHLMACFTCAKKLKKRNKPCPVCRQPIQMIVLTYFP
Summary of the method: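 Competition with nutlin-3a was run using the fluorescein conjugate. Library members came from scaffolds reacted 6 h at room temperature with carboxylic acids (20 equiv.), HBTU and DABCO in DMSO. Quenching was overnight in Tris-Cl pH 7.4 buffer with 0.01% Tween20.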

% thrombin activity ([1]; Log [Macrocycle] M -4.5): 0.233% and 0.231% and 2.7%
% thrombin activity ([1]; Log [Macrocycle] M -4.8): 1.1% and 1.5% and 2.1%
% thrombin activity ([1]; Log [Macrocycle] M -5.1): 2.6% and 3.2% and -2.3%
% thrombin activity ([1]; Log [Macrocycle] M -5.4): 3.6% and 5.7% and 3.8%
% thrombin activity ([1]; Log [Macrocycle] M -5.7): 8.1% and 9.4% and 6.2%
% thrombin activity ([1]; Log [Macrocycle] M -6.0): 12.9% and 16.1% and 11.7%
% thrombin activity ([1]; Log [Macrocycle] M -6.3): 22.1% and 27.3% and 19.3%
% thrombin activity ([1]; Log [Macrocycle] M -6.6): 34.1% and 41.1% and 30.9%
% thrombin activity ([1]; Log [Macrocycle] M -6.9): 55.7% and 58.5% and 45.5%
% thrombin activity ([1]; Log [Macrocycle] M -7.2): 67.0% and 71.8% and 59.8%
% thrombin activity ([1]; Log [Macrocycle] M -7.5): 78.0% and 82.2% and 70.6%
% thrombin activity ([1]; Log [Macrocycle] M -7.8): 96.6% and 99.4% and 81.6%
% thrombin activity ([1]; Log [Macrocycle] M -8.1): 97.9% and 103.9% and 87.1%
% thrombin activity ([1]; Log [Macrocycle] M -8.4): 104.8% and 107.0% and 92.8%
% thrombin activity ([1]; Log [Macrocycle] M -8.7): 103.7% and 107.0% and 93.5%
% thrombin activity ([1]; Log [Macrocycle] M -9.0): 106.1% and 107.4% and 94.0%
% thrombin activity ([1]; Log [Macrocycle] M -9.3): 106.8% and 100.7% and 99.2%
% thrombin activity ([1]; Log [Macrocycle] M -9.6): 107.9% and 105.2% and 99.6%
IC50 ([1]; average of 3 replicates, read-out: IC50 (nM) Average): 108 nM
IC50 ([1]; replicate 1, read-out: IC50 (nM) Replicate 1): 119 nM
Ki ([1]; replicate 1, read-out: Ki (nM) Replicate 1): 92 nM
IC50 ([1]; replicate 2, read-out: IC50 (nM) Replicate 2): 106 nM
Ki ([1]; replicate 2, read-out: Ki (nM) Replicate 2): 82 nM
IC50 ([1]; replicate 3, read-out: IC50 (nM) Replicate 3): 99 nM
Ki ([1]; replicate 3, read-out: Ki (nM) Replicate 3): 76 nM
SMILES: CC(C)C1NC(=O)CCSCSCCNC(=O)C(CNC(=O)c2ccc(Cl)s2)NC(=O)c2cccc(c2)CNC1=O (stereo not shown) [M4]

fraction of fluorescent probe displaced [2]: 0.015
SMILES: O=C1CN(CCNC(=O)c2cccc(Oc3ccccc3)c2)C(=O)[C@H]2CCCN(C2)C(=O)CCSSCCNC(=O)[C@H](Cc2c[nH]c3ccccc23)N1 [X-Nip-N-Aeg-Trp + Acid 111]

fraction of fluorescent probe displaced [2]: 0.035
SMILES: O=C(CCS(=O)(=O)c1ccccc1)NCCN1CC(=O)N[C@@H](Cc2c[nH]c3ccccc23)C(=O)NCCSSCCC(=O)N2CCC[C@@H](C2)C1=O [X-Nip-N-Aeg-Trp + Acid 114]

fraction of fluorescent probe displaced [2]: 0.021
SMILES: O=C1CN(CCNC(=O)C2COc3ccccc3O2)C(=O)[C@H]2CCCN(C2)C(=O)CCSSCCNC(=O)[C@H](Cc2c[nH]c3ccccc23)N1 (stereo partly shown) [X-Nip-N-Aeg-Trp + Acid 115]
